Measurements: ChEMBL document CHEMBL1158273, “New pyranocoumarins isolated from Calophyllum lanigerum and Calophyllum teysmannii” (J Nat Prod, 1996)
pEC50, pIC50: −log10 of the molar value. The source made the active and inactive calls. The rule behind the calls is not given here.

System: not listed separately
Assay: Therapeutic index, ratio of IC50 for human H9 cells to EC50 for HIV1
Type: cell-based
Settings: read-out: Ratio IC50/EC50

| Structure (SMILES) | selectivity ratio |
| --- | --- |
| CCCc1cc(=O)oc2c3c(c4c(c12)OC(C)(C)C=C4)O[C@@H](C)[C@H](C)[C@@H]3O [COSTATOLIDE] | 44.5 |
| CCCc1cc(=O)oc2c3c(c4c(c12)OC(C)(C)C=C4)O[C@@H](C)[C@@H](C)[C@@H]3O [CALANOLIDE F] | 4.5 |

System: H9
Assay: Cytotoxicity against human H9 cells
Type: cell-based
Settings: not given

| Structure (SMILES) | pIC50 |
| --- | --- |
| CCCC1CC(=O)Oc2c(C(=O)C(C)C(C)O)c(O)c3c(c21)OC(C)(C)C=C3 (centres undefined) [CALANOLIDE E2] | 5.60 |
| Cc1cc(=O)oc2c3c(c4c(c12)O[C@@H](C)[C@@H](C)[C@H]4O)OC(C)(C)C=C3 [PSEUDOCARDATOLIDE C] | 5.59 |
| C/C=C(\C)C(=O)c1c(OC)cc(OC)c2c(CCC)cc(=O)oc12 | 6.00 |
| CCCc1cc(=O)oc2c3c(c4c(c12)OC(C)(C)C=C4)O[C@@H](C)[C@H](C)[C@@H]3O [COSTATOLIDE] | 5.01 |
| CC1CC(=O)Oc2c(C(=O)C(C)C(C)O)c(O)c3c(c21)OC(C)(C)C=C3 (centres undefined) [CORDATOLIDE E] | 4.85 |
| CCCc1cc(=O)oc2c3c(c4c(c12)OC(C)(C)C=C4)O[C@@H](C)[C@@H](C)[C@@H]3O [CALANOLIDE F] | 4.90 |

System: Human immunodeficiency virus 1
Assay: Antiviral activity against HIV1 infected in human H9 cells assessed as effect on virus-induced cytopathic effect by tetrazolium/formazan assay
Type: functional, organism-based
Settings: not given

| Structure (SMILES) | Activity |
| --- | --- |
| CCCC1CC(=O)Oc2c(C(=O)C(C)C(C)O)c(O)c3c(c21)OC(C)(C)C=C3 (centres undefined) [CALANOLIDE E2] | inactive |
| Cc1cc(=O)oc2c3c(c4c(c12)O[C@@H](C)[C@@H](C)[C@H]4O)OC(C)(C)C=C3 [PSEUDOCARDATOLIDE C] | inactive |
| C/C=C(\C)C(=O)c1c(OC)cc(OC)c2c(CCC)cc(=O)oc12 | inactive |
| CC1CC(=O)Oc2c(C(=O)C(C)C(C)O)c(O)c3c(c21)OC(C)(C)C=C3 (centres undefined) [CORDATOLIDE E] | inactive |

Same assay, conditions: Human immunodeficiency virus 1, H9

| Structure (SMILES) | pEC50 |
| --- | --- |
| CCCc1cc(=O)oc2c3c(c4c(c12)OC(C)(C)C=C4)O[C@@H](C)[C@H](C)[C@@H]3O [COSTATOLIDE] | 6.66 |
| CCCc1cc(=O)oc2c3c(c4c(c12)OC(C)(C)C=C4)O[C@@H](C)[C@@H](C)[C@@H]3O [CALANOLIDE F] | 5.55 |
